From ChEMBL document CHEMBL3098052, “Chemical synthesis and tyrosinase inhibitory activity of rhododendrol glycosides” (Bioorg Med Chem Lett, 2014)

These molecules were tested against T1, Tyrosinase (Agaricus bisporus, UniProt O42713) (assay: Inhibition of mushroom tyrosinase using L-DOPA as substrate assessed as dopachrome formation after 5 mins by spectrophotometry).
T1 sequence (O42713 whole entry): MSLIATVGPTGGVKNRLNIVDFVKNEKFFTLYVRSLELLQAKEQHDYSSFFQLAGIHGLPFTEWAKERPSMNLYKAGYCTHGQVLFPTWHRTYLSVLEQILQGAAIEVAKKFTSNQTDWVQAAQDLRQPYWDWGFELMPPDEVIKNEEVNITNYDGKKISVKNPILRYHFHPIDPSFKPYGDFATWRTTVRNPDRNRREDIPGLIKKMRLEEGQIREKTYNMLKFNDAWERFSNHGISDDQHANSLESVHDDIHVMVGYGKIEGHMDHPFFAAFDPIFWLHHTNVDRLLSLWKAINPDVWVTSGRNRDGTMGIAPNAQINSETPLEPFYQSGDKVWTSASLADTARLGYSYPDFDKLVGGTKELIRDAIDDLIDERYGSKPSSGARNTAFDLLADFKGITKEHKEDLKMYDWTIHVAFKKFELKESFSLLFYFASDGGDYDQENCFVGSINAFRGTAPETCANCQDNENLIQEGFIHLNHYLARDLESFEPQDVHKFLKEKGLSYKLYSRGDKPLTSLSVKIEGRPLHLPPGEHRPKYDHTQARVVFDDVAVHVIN

Row | IC50 [µM] | SMILES
1 | 3.83 | C[C@@H](CCc1ccc(O)cc1O)O[C@@H]1O[C@H](CO)[C@@H](O[C@@H]2O[C@H](CO)[C@@H](O)[C@H](O)[C@H]2O)[C@H](O)[C@H]1O
2 | 1.51 | C[C@H](CCc1ccc(O)cc1O)O[C@@H]1O[C@H](CO)[C@@H](O[C@@H]2O[C@H](CO)[C@@H](O)[C@H](O)[C@H]2O)[C@H](O)[C@H]1O
3 | 4.72 | C[C@@H](CCc1ccc(O)cc1O)O[C@@H]1O[C@H](CO)[C@@H](O)[C@H](O)[C@H]1O
4 | 0.56 | CCCCCCc1ccc(O)cc1O [HEXYLRESORCINOL]
5 | 2.3 | C[C@H](CCc1ccc(O)cc1O)O[C@@H]1O[C@H](CO)[C@@H](O)[C@H](O)[C@H]1O
6 | 4.56 | C[C@@H](CCc1ccc(O)cc1O)O[C@@H]1OC[C@@H](O)[C@H](O)[C@H]1O
7 | 1.72 | C[C@H](CCc1ccc(O)cc1O)O[C@@H]1OC[C@@H](O)[C@H](O)[C@H]1O

These molecules were tested against T2, Tyrosinase (Agaricus bisporus) (UniProt O42713) (assay: Ratio of kojic acid IC50 to compound IC50 for mushroom tyrosinase).
T2 sequence (whole entry): T1 sequence (O42713 whole entry)

Row | Ratio IC50 | SMILES
8 | 6 | C[C@H](CCc1ccc(O)cc1O)O[C@@H]1O[C@H](CO)[C@@H](O[C@@H]2O[C@H](CO)[C@@H](O)[C@H](O)[C@H]2O)[C@H](O)[C@H]1O
